Molecules are shown by their SMILES.

One experiment concerns Aβ1-42 production. The experiment is described as follows: Cellular assay for inhibition of Aβ1-42 production (H4 APP751 SWE clone 8.20). The settings on record: 19 h, H4 APP751 SWE clone 8.20 cells, 19 h incubation; read-out: Activity Rating (Aβ42 cellular IC50, given as a number). Type of experiment: cell-based. As for the experimental part: Cellular assays for inhibition of Aβ1-40 and Aβ1-42 production
H4 cells stably transfected with APP751 containing the Swedish mutation (H4 APP751 SWE clone 8.20, developed at BMS) were maintained in log phase through twice weekly passage at a 1:20 split. For IC50 determinations, 30 μl cells (1.5×10^4 cells/well) in DMEM media containing 0.0125% BSA (Sigma A8412) were plated directly into 384-well compound plates (Costar 3709) containing 0.1 μl serially diluted compound in DMSO. Following incubation for 19 h in 5% CO2 at 37° C., plates were briefly centrifuged (1000 rpm, 5 min). A 10 μl aliquot from each well was transferred to a second assay plate (Costar 3709) for Aβ40 measurements. Antibody cocktails were freshly prepared by dilution into 40 mM Tris-HCl (pH 7.4) with 0.2% BSA and added to assay plates. For Aβ42 measurements, antibodies specific for the Aβ42 neoepitope (565, developed at BMS; conjugated to the Wallac reagent (Perkin Elmer)) and the N-terminal sequence of Aβ peptide (26D6, developed at SIBIA; conjugated to APC (Perkin Elmer)) were mixed and 20 μl of the mixture was added to each well of the incubated cell plate yielding a final concentration of 0.8 ng/well 565 and 75 ng/well 26D6. For the Aβ40 measurements, antibodies specific for the Aβ40 neoepitope (TSD, developed at BMS; conjugated to the Wallac reagent (Perkin Elmer)) and 26D6 as described above were mixed and 20 μl of the mixture was added to the 10 μl aliquots which had been removed previously from the cell plate yielding a final concentration of 1.6 ng/well TSD and 17.5 ng/well 26D6. Assay plates containing antibodies were sealed with aluminum foil and incubated overnight at 4° C. Signal was determined using a Viewlux counter (Perkin Elmer) and IC50 values determined using curve fitting in CurveMaster (Excel Fit based).
The IC50 is the point on the concentration scale where inhibition reaches its midpoint. For `COc1cc(Nc2nc3n(n2)CCCC[C@@H]3c2ccc(F)cc2)c(F)cc1-n1cnc(C)n1` (single isomer, unassigned) [Example 30], the concentration for half-maximal inhibition (IC50) came to 47 nM.

In the case of `COc1cc(Nc2nc3n(n2)CCCC[C@H]3c2cc(F)c(F)c(F)c2)ccc1-n1cnc(Cl)c1` (single isomer, unassigned) [Example 51], the half-inhibitory concentration (IC50) is 4 nM.

As to `Cc1ncn(-c2ccc(Nc3nc4n(n3)CCCC[C@H]4c3ccc(OC(F)(F)F)cc3)cc2F)n1` (single isomer, unassigned) [Example 97], the IC50 was 9 nM.

Still in this experiment, the particulars now being: 19 h, H4 APP751 SWE clone 8.20 cells, 19 h incubation; read-out: Activity Rating (based on Aβ42 cellular IC50 values).
Consider `Cc1ncn(-c2ccc(Nc3nc4n(n3)CCCC[C@H]4c3ccc(F)cc3)cc2F)n1` (single isomer, unassigned) [Example 26], for which the IC50 was 10 to 100 nM.

As for `Cc1ncn(-c2ccc(Nc3nc4n(n3)CCCC[C@@H]4c3ccc(F)cc3)cc2F)n1` (single isomer, unassigned) [Example 27], the 50% inhibitory concentration (IC50) was in the range of 10 to 100 nM.

As to `COc1cc(Nc2nc3n(n2)CCCC[C@H]3c2ccc(F)cc2F)ccc1-n1cnc(Cl)c1` (single isomer, unassigned) [Example 36], the IC50 was less than 10 nM.

Regarding `COc1cc(Nc2nc3n(n2)CCCC[C@@H]3c2ccc(F)cc2F)ccc1-n1cnc(Cl)c1` (single isomer, unassigned) [Example 37], the half-inhibitory concentration (IC50) was less than 10 nM.

For the compound `COc1cc(Nc2nc3n(n2)CCCC[C@H]3c2cc(F)cc(F)c2)ccc1-n1cnc(Cl)c1` (single isomer, unassigned) [Example 39], the IC50 is less than 10 nM.

On to `COc1cc(Nc2nc3n(n2)CCCC[C@@H]3c2cc(F)cc(F)c2)ccc1-n1cnc(Cl)c1` (single isomer, unassigned) [Example 40], for which the IC50 was in the range of 10 to 100 nM.

Take `COc1cc(Nc2nc3n(n2)CCCC[C@H]3c2cccc(F)c2)ccc1-n1cnc(Cl)c1` (single isomer, unassigned) [Example 45]: the IC50 was less than 10 nM.

Consider `COc1cc(Nc2nc3n(n2)CCCC[C@@H]3c2cccc(F)c2)ccc1-n1cnc(Cl)c1` (single isomer, unassigned) [Example 46], for which the half-inhibitory concentration (IC50) is 10 to 100 nM.

Regarding `COc1cc(Nc2nc3n(n2)CCCC[C@@H]3c2cc(F)c(F)c(F)c2)ccc1-n1cnc(Cl)c1` (single isomer, unassigned) [Example 52], the half-maximal inhibitory concentration (IC50) is less than 10 nM.

Take `COc1cc(Nc2nc3n(n2)CCCC[C@H]3c2cccc(Cl)c2)ccc1-n1cnc(Cl)c1` (single isomer, unassigned) [Example 54]: the IC50 was less than 10 nM.

As to `COc1cc(Nc2nc3n(n2)CCCC[C@@H]3c2cccc(Cl)c2)ccc1-n1cnc(Cl)c1` (single isomer, unassigned) [Example 55], the IC50 was less than 10 nM.

As for `COc1cc(Nc2nc3n(n2)CCCC[C@H]3c2ccccc2F)ccc1-n1cnc(Cl)c1` (single isomer, unassigned) [Example 58], the half-maximal inhibitory concentration (IC50) is less than 10 nM.

As for `COc1cc(Nc2nc3n(n2)CCCC[C@@H]3c2ccccc2F)ccc1-n1cnc(Cl)c1` (single isomer, unassigned) [Example 59], the IC50 was less than 10 nM.

As for `COc1cc(Nc2nc3c(s2)CCC[C@H]3c2ccccc2)ccc1-n1cnc(Cl)c1` (single isomer, unassigned) [Example 69], the IC50 fell in the range of 10 to 100 nM.

As for `COc1cc(Nc2nc3c(s2)CCC[C@@H]3c2ccccc2)ccc1-n1cnc(Cl)c1` (single isomer, unassigned) [Example 70], the 50% inhibitory concentration (IC50) is 100 to 1000 nM.

On to `COc1cc(Nc2nc3n(n2)CCCC[C@H]3c2ccc(F)cc2)ccc1-n1cnc(Cl)n1` (single isomer, unassigned) [Example 87], for which the IC50 was less than 10 nM.

For `COc1cc(Nc2nc3n(n2)CCCC[C@@H]3c2ccc(F)cc2)ccc1-n1cnc(Cl)n1` (single isomer, unassigned) [Example 88], the IC50 was in the range of 10 to 100 nM.

Regarding `Cc1ncnn1-c1ccc(Nc2nc3n(n2)CCCC[C@H]3c2ccc(F)cc2)cc1F` (single isomer, unassigned) [Example 94], the half-maximal inhibitory concentration (IC50) was in the range of 10 to 100 nM.

For the compound `Cc1ncn(-c2ccc(Nc3nc4n(n3)CCCC[C@@H]4c3ccc(OC(F)(F)F)cc3)cc2F)n1` (single isomer, unassigned) [Example 98], the IC50 fell in the range of 10 to 100 nM.

These data come from patent US8349880B2, “Bicyclic compounds for the reduction of beta-amyloid production” (Bristol-Myers Squibb Company, priority 2009, dated 2013).
